Values joined by “and” are separate entries in the source; they are usually repeats but may differ in a detail not shown here. Equal values may be shown once.
Legend:
CD-1 mice = experiment: Toxicity studies: expression levels of ALT and AST after ASS1 mRNA-loaded lipid nanoparticles; format: in vivo, mouse
Experimental: (§1) All studies were performed using male CD-1 mice of approximately 6-8 weeks of age at the beginning of each experiment. Samples were introduced by a single bolus tail-vein injection of an equivalent total dose of 1.0 mg/kg (or otherwise specified) of encapsulated ASS1 mRNA. Mice were sacrificed and perfused with saline at the designated time points.
All animals were euthanized by CO2 asphyxiation at designated time points post dose administration (±5%) followed by thoracotomy and terminal cardiac blood collection. Whole blood (maximal obtainable volume) will be collected via cardiac puncture on euthanized animals into serum separator tubes, allowed to clot at room temperature for at least 30 minutes, centrifuged at 22° C.±5° C. at 9300 g for 10 minutes, and the serum will be extracted. For interim blood collections, approximately 40-50 μL of whole blood will be collected via facial vein puncture or tail snip. Samples collected from non treatment animals were used as a baseline ASS1 levels for comparison to study animals.
The chiral compounds of formula I generally yielded lower expression levels of ALT and/or AST, i.e., correlating to lower liver toxicity issues, compared to stereochemically non-enriched, or stereochemically less enriched, compositions of the same lipid.

[1] = system: human ASS1 protein production in wild type mouse liver; experiment: In vivo human ASS1 protein production (ELISA) via hASS1 mRNA-loaded lipid nanoparticles; details: Table 1, human ASS1 by ELISA, CD-1 mice, single bolus intravenous injection, 1.0 mg/kg encapsulated ASS1 mRNA, twenty-four hours post-injection
Experimental: as §1
The liver, spleen, kidney and heart of each mouse was harvested, apportioned into separate parts, and stored in either 10% neutral buffered formalin or snap-frozen and stored at −80° C. for analysis.
Human ASS1 ELISA: Standard ELISA procedures were followed employing mouse anti-ASS1 2D1-2E12 IgG as the capture antibody with rabbit anti-ASS1 #3285 IgG as the secondary (detection) antibody (Shire Human Genetic Therapies). Horseradish peroxidase (HRP)-conjugated goat anti-rabbit IgG was used for activation of the 3,3′,5,5′-tetramethylbenzidine (TMB) substrate solution. The reaction was quenched using 2N H2SO4 after 20 minutes. Detection was monitored via absorption (450 nm) on a Molecular Device SpectraMax instrument. Untreated mouse serum and organs and human ASS1 protein were used as negative and positive controls, respectively.
The production of human ASS1 protein via codon-optimized hASS1 mRNA-loaded lipid nanoparticles, comprising compounds of formula I, was tested in CD-1 mice as a single, bolus intravenous injection, as described above. FIG. 1 depicts the amount of human ASS1 protein detected via ELISA when treating mice human ASS1 mRNA-loaded lipid nanoparticles, with various racemic and chiral compounds of formula I, at 1.0 mg/kg doses. The mice were sacrificed twenty-four hours post-injection and organs, such as livers, were harvested.

[2] = Table 1, ASS1 mRNA-loaded lipid nanoparticles with the named cKK-E12 composition as cationic lipid, mice, intravenous
[3] = Table 2, single intravenous dose, 24 hours post, formulation cKK-E12:DOPE:Chol:DMG-PEG2K, several lots per structure, listed as S4-RS/SR, in U/L
[4] = Table 2, single intravenous dose, 24 hours post, formulation cKK-E12:DOPE:Chol:DMG-PEG2K, several lots per structure, in U/L

SMILES	ALT (CD-1 mice; [2])	AST (CD-1 mice; [2])	ALT (CD-1 mice; [3])	AST (CD-1 mice; [3])	ASS1 (ng/mg Total Protein) [1] [ng/mg Total Protein]	ASS1 (ng/mg Total Protein) ([1]; 1 mg/kg)	ALT (CD-1 mice; [4])	AST (CD-1 mice; [4])
CCCCCCCCCC[C@H](O)CN(CCCC[C@@H]1NC(=O)[C@@H](CCCCN(C[C@@H](O)CCCCCCCCCC)C[C@@H](O)CCCCCCCCCC)NC1=O)C[C@@H](O)CCCCCCCCCC [S4-S,R-cKKE12]	190 ± 75 U/L	193 ± 71 U/L	143 ± 29 and 189 ± 47 and 190 ± 75	240 ± 98 and 203 ± 87 and 193 ± 71	2303 ± 491	–	–	–
CCCCCCCCCC[C@@H](O)CN(CCCCC1NC(=O)C(CCCCN(C[C@H](O)CCCCCCCCCC)C[C@H](O)CCCCCCCCCC)NC1=O)C[C@H](O)CCCCCCCCCC (mixture of isomers) [R4 with Racemic Lysine Core]	188 ± 22 U/L and 236 ± 163 U/L	265 ± 122 U/L and 237 ± 139 U/L	–	–	–	823 ± 215 ng/mg Total Protein and 568 ± 248 ng/mg Total Protein	–	–
CCCCCCCCCC[C@@H](O)CN(CCCC[C@H]1NC(=O)[C@@H](CCCCN(C[C@H](O)CCCCCCCCCC)C[C@H](O)CCCCCCCCCC)NC1=O)C[C@H](O)CCCCCCCCCC [R4-RR]	–	–	–	–	–	–	136 ± 34	194 ± 80
CCCCCCCCCCC(O)CN(CCCC[C@@H]1NC(=O)[C@H](CCCCN(CC(O)CCCCCCCCCC)CC(O)CCCCCCCCCC)NC1=O)CC(O)CCCCCCCCCC (stereo in doubt) [R4-S,S-cKKE12, (3S,6S)-3,6-bis(4-(bis((S)-2-hydroxydodecyl)amino)butyl)piperazine-2,5-dione]	175 ± 102 U/L	144 ± 35 U/L	–	–	449 ± 105	–	175 ± 102	144 ± 35
CCCCCCCCCC[C@H](O)CN(CCCC[C@@H]1NC(=O)[C@H](CCCCN(C[C@@H](O)CCCCCCCCCC)C[C@@H](O)CCCCCCCCCC)NC1=O)C[C@@H](O)CCCCCCCCCC [S4-S,S-cKKE12, (3S,6S)-3,6-bis(4-(bis((S)-2-hydroxydodecyl)amino)butyl)piperazine-2,5-dione]	226 ± 71 U/L	384 ± 233 U/L	–	–	1121 ± 468	–	226 ± 71	384 ± 233
CCCCCCCCCC[C@H](O)CN(CCCCC1NC(=O)C(CCCCN(C[C@@H](O)CCCCCCCCCC)C[C@@H](O)CCCCCCCCCC)NC1=O)C[C@@H](O)CCCCCCCCCC (mixture of isomers) [S4 with Racemic Lysine Core]	170 ± 40 U/L and 155 ± 57 U/L	132 ± 44 U/L and 157 ± 38 U/L	–	–	–	375 ± 244 ng/mg Total Protein and 674 ± 147 ng/mg Total Protein	–	–
CCCCCCCCCCC(O)CN(CCCC[C@@H]1NC(=O)[C@H](CCCCN(CC(O)CCCCCCCCCC)CC(O)CCCCCCCCCC)NC1=O)CC(O)CCCCCCCCCC (mixture of isomers) [Racemic —OH with SS Lysine Core]	378 ± 58 U/L and 618 ± 503 U/L	622 ± 76 U/L and 638 ± 273 U/L	–	–	–	117 ± 80 ng/mg Total Protein and 209 ± 169 ng/mg Total Protein	–	–
CCCCCCCCCC[C@H](O)CN(CCCC[C@H]1NC(=O)[C@@H](CCCCN(C[C@@H](O)CCCCCCCCCC)C[C@@H](O)CCCCCCCCCC)NC1=O)C[C@@H](O)CCCCCCCCCC [S4-RR]	–	–	–	–	–	–	152 ± 9	180 ± 42

Source: patent US11104652B2, “Stereochemically enriched compositions for delivery of nucleic acids” (TRANSLATE BIO, INC., priority 2014, dated 2021)
